Patent publication US11279687B2, “Compounds and compositions for the inhibition of NAMPT” (Valo Health, Inc., priority 2010, dated 2022)
Where two headings read alike, the source gives them in different places.

Columns and labels:
NAMPT = NAMPT (Homo sapiens (Human), UniProt P43490); test: NAMPT biochemical inhibition assay (NMN quantified by mass spectrometry); conditions: NAMPT biochemical inhibition; read-out: Biochem IC50
A2780 cells = test: In-vitro cell proliferation assay (SRB), A2780 cells; assay type: cell-based; conditions: A2780 cells, 72 hours, SRB, read-out: A2780 IC50;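 note: viable cell number read as SRB absorbance, background from media-only wells subtracted, IC50 interpolated from percent inhibition at two bracketing compound concentrations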

Chain of NAMPT (P43490 whole entry): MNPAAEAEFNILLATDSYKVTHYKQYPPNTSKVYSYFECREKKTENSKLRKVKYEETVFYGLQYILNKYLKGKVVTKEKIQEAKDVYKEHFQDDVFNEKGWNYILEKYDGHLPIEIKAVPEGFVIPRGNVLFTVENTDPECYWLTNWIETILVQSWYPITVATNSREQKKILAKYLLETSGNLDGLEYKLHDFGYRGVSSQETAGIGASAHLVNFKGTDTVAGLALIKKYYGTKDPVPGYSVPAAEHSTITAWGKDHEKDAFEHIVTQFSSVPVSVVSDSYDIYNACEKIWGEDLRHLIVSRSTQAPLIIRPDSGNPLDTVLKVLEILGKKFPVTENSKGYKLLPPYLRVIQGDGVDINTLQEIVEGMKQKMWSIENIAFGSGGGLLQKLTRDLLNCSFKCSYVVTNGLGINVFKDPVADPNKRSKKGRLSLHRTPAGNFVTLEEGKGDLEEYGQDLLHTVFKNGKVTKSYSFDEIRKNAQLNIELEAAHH

Structure (SMILES) | IC50 (NAMPT) [nM] | IC50 (A2780 cells; Homo sapiens, A2780, 72 h) [nM] | IC50 (A2780 cells) [nM]
O=C(NCc1cccnc1)Nc1ccc(S(=O)(=O)N2CCN(C(c3ccc(F)cc3)c3ccc(F)cc3)CC2)cc1 [3-(4-{4-[bis(4-fluorophenyl)methyl]piperazine-1-sulfonyl}phenyl)-1-(pyridin-3-ylmethyl)urea] | 5 | 7 | –
CC(C)C(=O)NC1CCN(S(=O)(=O)c2ccc(NC(=O)NCc3cccnc3)cc2)CC1 [2-methyl-N-{1-[(4-{[(pyridin-3-ylmethyl)carbamoyl]amino}benzene)sulfonyl]piperidin-4-yl}propanamide] | 5 | – | 123
O=C(NCc1ccc[n+]([O-])c1)Nc1ccc([S+]([O-])c2ccc(Cl)cc2)cc1 (stereo not drawn) [3-{[({4-[(4-chlorobenzene)sulfinyl]phenyl}carbamoyl)amino]methyl}pyridin-1-ium-1-olate] | 444 | – | 20600
O=C(NCc1cccnc1)Nc1ccc(S(=O)(=O)N2CCN(c3ncccc3Cl)CC2)cc1 [3-{4-[4-(3-chloropyridin-2-yl)piperazine-1-sulfonyl]phenyl}-1-(pyridin-3-ylmethyl)urea] | 1 | 18 | –
Cc1ccc(C)c(NS(=O)(=O)c2ccc(NC(=O)NCc3cccnc3)cc2)c1 [3-{4-[(2,5-dimethylphenyl)sulfamoyl]phenyl}-1-(pyridin-3-ylmethyl)urea] | 6 | 116 | –
O=C(NCc1cccnc1)Nc1ccc(S(=O)(=O)Nc2ccccc2N2CCCC2)cc1 [3-(pyridin-3-ylmethyl)-1-(4-{[2-(pyrrolidin-1-yl)phenyl]sulfamoyl}phenyl)urea] | 13 | 11 | –
O=C(NCc1cccnc1)Nc1ccc(S(=O)(=O)N2CCN(CC(=O)N3CCCCC3)CC2)cc1 [1-(4-{4-[2-oxo-2-(piperidin-1-yl)ethyl]piperazine-1-sulfonyl}phenyl)-3-(pyridin-3-ylmethyl)urea] | 9 | 21 | –
O=C(NCc1cccnc1)Nc1ccc(S(=O)(=O)N2CCCC(CN3CCCC3=O)C2)cc1 (stereo not drawn) [1-(4-{3-[(2-oxopyrrolidin-1-yl)methyl]piperidine-1-sulfonyl}phenyl)-3-(pyridin-3-ylmethyl)urea] | 3 | 143 | –
O=C(NCc1ccc(C(F)(F)F)nc1)Nc1ccc(S(=O)(=O)N2CCCCC2)cc1 [3-[4-(piperidine-1-sulfonyl)phenyl]-1-{[6-(trifluoromethyl)pyridin-3-yl]methyl]urea] | 189 | > 30000 | –
O=C(NCc1cccnc1)Nc1ccc(S(=O)(=O)N2CCN(C(=O)Cc3ccc(Cl)c(Cl)c3)CC2)cc1 [3-(4-{4-[2-(3,4-dichlorophenyl)acetyl]piperazine-1-sulfonyl[phenyl)-1-(pyridin-3-ylmethyl)urea] | 3.7 | – | 1000 to 10000
CNC(=O)c1ccccc1NS(=O)(=O)c1ccc(NC(=O)NCc2cccnc2)cc1 [N-methyl-2-[(4-{[(pyridin-3-ylmethyl)carbamoyl]amino}benzene)sulfonamido]benzamide] | 1 | 11 | –
O=C(Nc1nc(-c2cccnc2)cs1)c1ccc(S(=O)(=O)N2CCc3ccccc3C2)cc1 [N-[4-(pyridin-3-yl)-1,3-thiazol-2-yl]-4-(1,2,3,4-tetrahydroisoquinoline-2-sulfonyl)benzamide] | 11100 | 2620 | –
CC(C)(C)CNS(=O)(=O)c1ccc(NC(=O)NCc2cccnc2)cc1 [3-{4-[(2,2-dimethylpropyl)sulfamoyl]phenyl}-1-(pyridin-3-ylmethyl)urea] | 17 | 159 | –
CN(Cc1ccc(Cl)cc1)S(=O)(=O)c1ccc(NC(=O)NCc2cccnc2)cc1 [3-(4-{[(4-chlorophenyl)methyl](methyl)sulfamoyl}phenyl)-1-(pyridin-3-ylmethyl)urea] | 2 | 484 | –
O=C(NCc1cccnc1)Nc1ccc(S(=O)(=O)N2CC3CCC2C3)cc1 (stereo not drawn) [1-(4-{2-azabicyclo[2.2.1]heptane-2-sulfonyl}phenyl)-3-(pyridin-3-ylmethyl)urea] | 10 | 236 | –
CC(C)NC(=O)CN1CCN(S(=O)(=O)c2ccc(NC(=O)NCc3cccnc3)cc2)CC1 [N-(propan-2-yl)-2-{4-[(4-{[(pyridin-3-ylmethyl)carbamoyl]amino}benzene)sulfonyl]piperazin-1-yl}acetamide] | 3 | 37 | –
CC(C)C(=O)Nc1cccc(S(=O)(=O)c2ccc(NC(=O)NCc3cccnc3)cc2)c1 [2-methyl-N-{3-[(4-{[(pyridin-3-ylmethyl)carbamoyl]amino}benzene)sulfonyl]phenylJpropanamide] | 1.2 | – | 10.1

The next lines start with results.

IC50 (NAMPT) [nM] | IC50 (A2780 cells; Homo sapiens, A2780, 72 h) [nM] | Structure (SMILES) | IC50 (A2780 cells) [nM]
3 | 569 | O=C(NCc1cccnc1)Nc1ccc(S(=O)(=O)c2ccccc2C(F)(F)F)cc1 [1-(pyridin-3-ylmethyl)-3-(4-{[2-(trifluoromethyl)benzene]sulfonyl}phenyl)urea] | –
2.16 | 2.3 | COc1ccc(Cl)cc1NS(=O)(=O)c1ccc(C(=O)NCc2ccc3nccn3c2)cc1 [4-[(5-chloro-2-methoxyphenyl)sulfamoyl]-N-{imidazo[1,2-a]pyridin-6-ylmethyl}benzamide] | –
1 | 7 | COc1ccc(OC)c(S(=O)(=O)c2ccc(NC(=O)NCc3cccnc3)cc2)c1 [3-{4-[(2,5-dimethoxybenzene)sulfonyl]phenyl}-1-(pyridin-3-ylmethyl)urea] | –
9 | 604 | O=C(NCc1cccnc1)Nc1ccc(S(=O)(=O)c2ccc(C(F)(F)F)cc2)cc1 [1-(pyridin-3-ylmethyl)-3-(4-{[4-(trifluoromethyl)benzene]sulfonyl}phenyl)urea] | –
5 | 298 | Cc1cccc(S(=O)(=O)c2ccc(NC(=O)NCc3cccnc3)cc2)c1C [3-{4-[(2,3-dimethylbenzene)sulfonyl]phenyl}-1-(pyridin-3-ylmethyl)urea] | –
2 | 10 | COc1ccccc1S(=O)(=O)c1ccc(NC(=O)NCc2cccnc2)cc1 [3-{4-[(2-methoxybenzene)sulfonyl]phenyl}-1-(pyridin-3-ylmethyl)urea] | –
4 | 79 | CC(C)Oc1cccc(S(=O)(=O)c2ccc(NC(=O)NCc3cccnc3)cc2)c1 [3-(4-{[3-(propan-2-yloxy)benzene]sulfonyl}phenyl)-1-(pyridin-3-ylmethyl)urea] | –
1.3 | 40.2 | CCNC(=O)c1ccc(S(=O)(=O)c2ccc(NC(=O)NCc3cccnc3)cc2)cc1 [N-ethyl-4-[(4-{[(pyridin-3-ylmethyl)carbamoyl]amino[benzene)sulfonyl]benzamide] | –
0.9 | 36 | O=C(NCc1cccnc1)Nc1ccc(S(=O)(=O)Nc2ccc(F)cc2Cl)cc1 [3-{4-[(2-chloro-4-fluorophenyl)sulfamoyl]phenyl}-1-(pyridin-3-ylmethyl)urea] | –
1.3 | 27.2 | COc1cc(Cl)cc(S(=O)(=O)c2ccc(NC(=O)NCc3cccnc3)cc2)c1 [3-{4-[(3-chloro-5-methoxybenzene)sulfonyl]phenyl}-1-(pyridin-3-ylmethyl)urea] | –
6 | 652 | O=C(NCc1cccnc1)Nc1ccc(S(=O)(=O)c2cc(Cl)ccc2Cl)cc1 [3-{4-[(2,5-dichlorobenzene)sulfonyl]phenyl}-1-(pyridin-3-ylmethyl)urea] | –
19.5 | 3.92 | O=C(NCc1ccc2nccn2c1)c1ccc(S(=O)(=O)c2ccccc2Cl)cc1 [4-[(2-chlorobenzene)sulfonyl]-N-{imidazo[1,2-a]pyridin-6-ylmethyl}benzamide] | –
30.8 | 25.9 | O=C(NCc1ccn2ccnc2c1)c1ccc(S(=O)(=O)c2ccccc2)cc1 [4-(benzenesulfonyl)-N-{imidazo[1,2-a]pyridin-7-ylmethyl}benzamide] | –
3.8 | 100 to 1000 | NS(=O)(=O)c1cccc(S(=O)(=O)c2ccc(NC(=O)NCc3cccnc3)cc2)c1 [1-(pyridin-3-ylmethyl)-3-{4-[(3-sulfamoylbenzene)sulfonyl]phenyl}urea] | –
8 | 100 to 1000 | N#Cc1cccc(S(=O)(=O)c2ccc(NC(=O)NCc3cccnc3)cc2)c1 [1-{4-[(3-cyanobenzene)sulfonyl]phenyl}-3-(pyridin-3-ylmethyl)urea] | –
5 | 17 | COc1ccc(S(=O)(=O)c2ccc(NC(=O)NCc3cccnc3)cc2)cc1OC [3-{4-[(3,4-dimethoxybenzene)sulfonyl]phenyl}-1-(pyridin-3-ylmethyl)urea] | –
8 | 6 | O=C(NCc1ccc2nccn2c1)Nc1ccc(S(=O)(=O)N2CC3CCC(C2)O3)cc1 [3-{imidazo[1,2-a]pyridin-6-ylmethyl}-1-(4-{8-oxa-3-azabicyclo[3.2.1]octane-3-sulfonyl}phenyl)urea] | –
2 | 169 | CCc1ccccc1S(=O)(=O)c1ccc(NC(=O)NCc2cccnc2)cc1 [3-{4-[(2-ethylbenzene)sulfonyl]phenyl}-1-(pyridin-3-ylmethyl)urea] | –
11 | 149 | O=C(NCc1cccnc1)Nc1ccc(S(=O)(=O)Nc2cccnc2Oc2ccc(F)cc2)cc1 [3-(4-{[2-(4-fluorophenoxy)pyridin-3-yl]sulfamoyl}phenyl)-1-(pyridin-3-ylmethyl)urea] | –
2 | 3 | COc1cc(-n2cccn2)ccc1S(=O)(=O)c1ccc(NC(=O)NCc2cccnc2)cc1 [3-(4-{[2-methoxy-4-(1H-pyrazol-1-yl)benzene]sulfonyl}phenyl)-1-(pyridin-3-ylmethyl)urea] | –
17.7 | 5.71 | O=C(NCc1ccc2nccn2c1)c1ccc(S(=O)(=O)c2cc(F)cc(F)c2)cc1 [4-[(3,5-difluorobenzene)sulfonyl]-N-{imidazo[1,2-a]pyridin-6-ylmethyl}benzamide] | –
2.2 | 98 | O=C(NCc1cccnc1)Nc1ccc(S(=O)(=O)c2cccc(-n3cccn3)c2)cc1 [1-(4-{[3-(1H-pyrazol-1-yl)benzene]sulfonyl}phenyl)-3-(pyridin-3-ylmethyl)urea] | –
